{
  "source": "patent US12496361B2",
  "about": "“Imaging compounds for detecting or imaging senescent cells” (University of Dundee, priority 2023, dated 2025)",
  "key": {"[1]": {"test_system": "HBEC CDC6 Tet-ON cells", "assay": "Detection of senescent cells in cell cultures by fluorescent microscopy", "assay_type": "cell-based", "protocol": "(§1) 1-Ethyl-2-((E)-2-((E)-3-((E)-2-(1-ethyl-3,3-dimethylindolin-2-ylidene)ethylidene)-2-((4-(4-((2-methyl-6-((E)-(4-((E)-phenyldiazenyl)naphthalen-1-yl)diazenyl)-2,3-dihydro-1H-perimidin-2-yl)methoxy)-4-oxobutanamido)butyl)amino)cyclohex-1-en-1-yl)vinyl)-3,3-dimethyl-3H-indol-1-ium iodide (15, Scheme 2, Example 2) was used to detect senescent cells in cell spreads using fluorescent microscopy (FIG. 1).\n(§2) Li-Fraumeni-p21^WAF1/Cip1 or HBEC-CDC6 Tet-ON cellular systems were grown on cover slips and collected before and after the mentioned respective treatments for induction of senescence. Cover slips were treated as follows: • a) Cell spreads, immobilized preferably on a microscopy coverslip, are fixed in 4% paraformaldehyde (PFA) for 10 minutes at 4° C.; • b) Wash with PBS; • c) Cell membrane permeabilization: Immerse coverslips in solution of 0.3% Triton-X 100 diluted in PBS for 15 minutes; • d) Wash with PBS; • e) Apply compound of formula I on cells for 10 minutes in dark conditions; • f) Wash 3 times with fresh wash buffer [PBS/DMSO (2.5%)/TWEEN-20 (2.5%)]; • g) Incubate cells with 0.3% Triton-X 100 diluted in PBS for 3 minutes; • h) Wash with PBS; • i) Apply DAPI 1/5000 for 5 minutes in dark condition; • j) Rinse samples with dH2O for 30 seconds; • k) Cover section using a mounting medium for immunofluorescence."}, "[2]": {"test_system": "Li-Fraumeni-p21^WAF1/Cip1 Tet-ON cells", "assay": "Detection of senescent cells in cell cultures by fluorescent microscopy", "assay_type": "cell-based", "protocol": "as §1, §2"}, "[3]": {"test_system": "HBEC CDC6 Tet-ON cells", "assay": "Detection by flow cytometry of senescent cells in cell culture", "assay_type": "cell-based", "conditions": "with or without Doxycycline; anti-Ki67-Pacific blue only (HBEC cells do not express p16^INK4A)", "protocol": "as §1, with “senescent cultured” for “senescent”, “by flow cytometry.” for “in cell spreads using fluorescent microscopy (FIG. 1).”\n(§3) Li-Fraumeni-p21^WAF1/Cip1 or HBEC-CDC6 Tet-ON cellular systems were grown in culture without or with Doxycyclin to induce senescence. Subsequently cells were treated and assessed as follows: • 1. Harvest cells from culture. • 2. Centrifuge at 1200 rpm for 5 min at RT. • 3. Wash ×1 in 5 ml PBS at RT. • 4. Resuspend cell pellet in 4% PFA and incubate them for 15 min in RT (fixation) • 5. Centrifuge at 1200 rpm for 5 min at RT. • 6. Resuspend cell pellet in 0.3% Triton-X/PBS and incubate it for 15 min at RT. • 7. Wash ×1 in 2 ml PBS at RT • 8. Centrifuge at 1200 rpm for 5 min at RT. • 9. Incubate samples with 100 μl of GLF16 for 8 min under gently shaking in dark condition • 10. Add 2 ml of wash buffer [PBS/DMSO (2.5%)/TWEEN-20 (2.5%)] and centrifuge at 1200 rpm for 5 min at RT (×2) • 11. Incubate with primary-conjugated antibody/ies for 20 min RT • 12. Centrifuge at 1200 rpm for 5 min at RT (×2) • 13. Apply flow cytometry buffer (PBS/5% FBS)"}, "[4]": {"test_system": "Li-Fraumeni-p21^WAF1/Cip1 Tet-ON cells", "assay": "Detection by flow cytometry of senescent cells in cell culture", "assay_type": "cell-based", "conditions": "with or without Doxycycline; anti-Ki67-Pacific blue and anti-p16^INK4A-APC; 3 independent experiments", "protocol": "as §1, with “senescent cultured” for “senescent”, “by flow cytometry.” for “in cell spreads using fluorescent microscopy (FIG. 1).”\nas §3"}, "[5]": {"test_system": "senescent cells in tissue sections of murine models (K-ras^V12-induced lung adenomas, palbociclib-treated human melanoma xenografts, bleomycin-induced lung …)", "assay": "Detection of senescent cells in tissue sections by fluorescent microscopy, murine models", "conditions": "bleomycin-treated lungs", "source_text": "as §1, with “tissue sections by” for “cell spreads using”, “microscopy.” for “microscopy (FIG. 1).”\n(§4) Tissue sections were obtained from paraffin embedded, formalin fixed of: (A) irradiated human laryngeal tumors, (B) chemotherapy-treated breast tissues, (C) liver specimens from aged versus young individuals, (D) K-ras^V12 induced lung adenomas, (E) Palbociclib-treated human melanoma xenografts, and (F) Bleomycin-induced lung fibrosis mouse model, with established presence of senescent cells. Subsequently, they were immobilized on glass microscopy slides by standard procedures and processed as follows: • i. Section deparaffinization through a 30 minutes incubation at 60° C., followed by washing in xylene for 15 minutes at room temperature. • ii. Gradual rehydration of biopsy material, usually fixed tissues, in solutions of descending concentration of ethanol (100%, 96%, 80%, 70%, 50% v/v) for 5 minutes each step and finally in Phosphate-buffered saline (PBS) buffering solution; • iii. Antigen retrieval by heating in citrate acid solution 10 mM, pH=6. […]"}, "[6]": {"test_system": "senescent cells in human tissue sections (irradiated laryngeal, chemotherapy-treated breast, aged liver)", "assay": "Detection of senescent cells in tissue sections by fluorescent microscopy, human clinical settings", "conditions": "chemotherapy-treated breast tissues, liver specimens from aged individuals versus respective controls, FFPE sections", "source_text": "as §1, with “tissue sections by” for “cell spreads using”, “microscopy.” for “microscopy (FIG. 1).”\nas §4"}},
  "data": [
    {"smiles": "CCN1/C(=C/C=C2\\CCCC(/C=C/C3=[N+](CC)c4ccccc4C3(C)C)=C2NCCCCNC(=O)CCC(=O)OCC2(C)Nc3cccc4c(/N=N/c5ccc(/N=N/c6ccccc6)c6ccccc56)ccc(c34)N2)C(C)(C)c2ccccc21", "note": "(stereo not shown) [GLF16, 1-ethyl-2-((E)-2-((E)-3-((E)-2-(1-ethyl-3,3-dimethylindolin-2-ylidene)ethylidene)-2-((4-(4-((2-methyl-6-((E)-(4-((E)-phenyldiazenyl)naphthalen-1-yl)diazenyl)-2,3-dihydro-1H-perimidin-2-yl)methoxy)-4-oxobutanamido)butyl)amino)cyclohex-1-en-1-yl)vinyl)-3,3-dimethyl-3H-indol-1-ium iodide]", "values": [
      {"measurement": "specificity: co-staining with p21^WAF1/Cip and Ki67", "setting": "[1]; (+) Doxycycline, FIG. 2 panels F, G", "result": "concordant staining presence of the senescence associated factors"},
      {"measurement": "staining of senescent cells", "setting": "[1]; FIG. 2 panel E, (-) Doxycycline as negative control", "result": "successful application"},
      {"measurement": "specificity: co-staining with p16^INK4A and Ki67", "setting": "[2]; (+) Doxycycline, FIG. 2 panels B, C", "result": "concordant staining presence of the senescence associated factors"},
      {"measurement": "co-staining with the proliferative marker Ki67", "setting": "[2]; FIG. 2C", "result": "inverse relationship between GLF16 and Ki67 positivity"},
      {"measurement": "GLF16 staining signal", "setting": "[2]; cells treated or not with Doxycycline for 6-8 days, fixed, permeabilized, confocal microscope", "result": "intense cytoplasmic signal (corresponding to lipofuscin aggregates) abundant in senescent cells and entirely absent in untreated ones"},
      {"measurement": "co-detection of GLF16 with senescence markers in gated GLF16 (+) and (-) cells", "setting": "[3]", "result": "co-detection of GLF16 and senescence markers (p16^INK4A and absence of Ki67) in the senescent population (induced cells)"},
      {"measurement": "co-detection of GLF16 with senescence markers in gated GLF16 (+) and (-) cells", "setting": "[4]", "result": "co-detection of GLF16 and senescence markers (p16^INK4A and absence of Ki67) in the senescent population (induced cells)"},
      {"measurement": "concurrent staining with Ki67, p21^WAF1/Cip1 and p16^INK4A", "setting": "[5]; FIG. 3 G-I, tissue per panel not stated except H", "result": "coincided with p16^INKA4 or p21^WAF1/Cip1 but not with Ki67"},
      {"measurement": "GLF16 (lipofuscin) positive macrophages", "setting": "[5]; FIG. 3H", "result": "positive macrophages in bleomycin-treated lungs are also evident"},
      {"measurement": "GLF16-positive cells in tissue", "setting": "[6]", "result": "abundant in GLF16-positive cells while in respective controls these positive cells were totally absent"}
    ]}
  ]
}
